Measured values as given in patent US20090232899A1, “Mucoadhesive nanocomposite delivery system” (priority 2004, published 2009).

Experiments:
[1] = low pH, simulated gastric fluid; cited from earlier work

Method for NIH3T3 fibroblast cells: The NIH3T3 fibroblast cells were used for cytotoxicity testing by methyl thiazol-2-YL-2,5-diphenyl tetrazolium bromide (MTT) staining. After seven days, the cell-containing samples were rinsed with serum-free media to remove the unattached cells and were transferred to a new plate. Then, 250 μl MTT solution was added to each sample and incubated for 4 hours to induce MTT formazan formation. Purple formazan was extracted with dimethyl sulfoxide (DMSO), and was used for optical density (OD) measurement with a Thermomax ELISA reader at a wavelength of 540 nm with DMSO as a blank.

Compound | Stability under the testing conditions, compared with amoxicillin [1] | Viability of fibroblasts, ratio (%) of absorbance of sample group to group without treatment (NT) (NIH3T3 fibroblast cells)
Cc1ncc([N+](=O)[O-])n1CCO [Metronidazole] | greater stability | –
Chitosan | – | 90 ± 9%
